Data as given in PMC9995496, “A screen for MeCP2-TBL1 interaction inhibitors using a luminescence-based assay” (Scientific Reports, 2023).
Counter-ions that a name gives are not always drawn.

System: PRKACA-PRKAR2A interaction (SmBiT-PRKACA / LgBiT-PRKAR2A), protein kinase A
Parameters: NanoLuc complementation counter-screen in cell extract, PRKACA with PRKAR2A, loss of luminescence, detects NanoLuc interference
Details: 0.5 h, 20 µM; inhibitor

SMILES | Inh (PKA) [%]
CC(C)(O)/C=C/C(=O)[C@](C)(O)[C@H]1[C@H](O)C[C@@]2(C)[C@@H]3CC=C4[C@@H](C=C(O)C(=O)C4(C)C)[C@]3(C)C(=O)C[C@]12C [UM0141852:01, Cucurbitacin I] | -0.1004

Same assay, conditions: counter-screen for NanoLuc interference, 0.5 h, 20 µM, inhibitor, Inh (PKA)

SMILES | Inh (PKA) [%]
O=C(Cc1ccc(-c2ccc(OCCN3CCOCC3)cc2)cn1)NCc1ccccc1 [UM0141575:01, KX2-391 dihydrochloride] | 3.66
NCC1(CC(=O)O)CCCCC1 [UM0142295:01, Gabapentin HCl] | 0.4431
CNC(=O)c1cc(Oc2ccc(NC(=O)Nc3ccc(Cl)c(C(F)(F)F)c3)cc2)ccn1 [UM0130993:02, Sorafenib Tosylate] | 7.099
Cc1ccc(NC(=O)c2ccc(CN3CCN(C)CC3)cc2)cc1Nc1nccc(-c2cccnc2)n1 [UM0127952:03, Imatinib (STI571)] | 7.189
CC(=O)Oc1cc2c(s1)CCN(C(C(=O)C1CC1)c1ccccc1F)C2 (centres unmarked) [UM0141405:01, Prasugrel] | 8.306
Cc1ccc(NC(=O)c2ccc(CN3CCN(C)CC3)cc2)cc1Nc1nccc(-c2cccnc2)n1 [UM0130978:02, Imatinib Mesylate (STI571)] | 10.22

Same assay, conditions: counter-screen for NanoLuc interference; 0.5 h, 20 µM; inhibitor

SMILES | Inh (PKA) [%]
COCC1(CO)C(=O)C2CCN1CC2 (centres unmarked) [UM0141842:01, PRIMA-1MET] | 2.921
CC(C)C[C@H](NC(=O)[C@H](CCc1ccccc1)NC(=O)CN1CCOCC1)C(=O)N[C@@H](Cc1ccccc1)C(=O)N[C@@H](CC(C)C)C(=O)[C@@]1(C)CO1 [UM0141433:01, Carfilzomib (PR-171)] | 0.3082
COc1cc2c(cc1OC)CN(CCc1ccc(NC(=O)c3cc(OC)c(OC)cc3NC(=O)c3cnc4ccccc4c3)cc1)CC2 [UM0141951:01, Tariquidar] | 12.46
CNC(=O)[C@H](Cc1c[nH]c2ccccc12)NC(=O)[C@@H](CC(=O)NO)CC(C)C [UM0141679:01, GM 6001] | -1.568
O=C(O)C(Cc1c[nH]c2ccccc12)N1C(=O)c2ccccc2C1=O (centres unmarked) [UM0141426:01, RG 108] | 1.344
CCOC(=O)[C@H](CCc1ccccc1)N[C@@H](C)C(=O)N1C(=O)N(C)C[C@H]1C(=O)O [UM0142047:01, Imidapril HCl] | 2.302
COc1cc2/c(=N/c3ccc(Br)cc3F)nc[nH]c2cc1OCC1CCN(C)CC1 [UM0127962:02, Vandetanib (ZD6474)] | 5.275
C[C@]1(O)C[C@@H](c2nc(-c3ccc4ccc(-c5ccccc5)nc4c3)c3c(N)nccn32)C1 [UM0141998:01, Linsitinib] | 15.97
CCn1c(=O)c(-c2ccc(-c3cncs3)cc2Cl)cc2cnc(Nc3ccc(N4CCN(C)CC4)cc3)nc21 [UM0142182:01, FRAX597] | 16.18
NC(=O)c1ccc(N(C(N)=O)c2c(F)cccc2F)nc1-c1ccc(F)cc1F [UM0127964:03, VX-702] | 6.199
C[C@@H](O[C@H]1OCCN(Cc2n[nH]c(=O)[nH]2)[C@H]1c1ccc(F)cc1)c1cc(C(F)(F)F)cc(C(F)(F)F)c1 [UM0141409:01, Aprepitant] | 12.87
CN(C(=O)c1cc2ccccc2cc1C(=O)C(c1cccc2ccccc12)P(=O)(O)O)C1CCN(C(=O)c2ccccc2)CC1 (centres unmarked) [UM0141932:01, Cathepsin G Inhibitor I] | 16.06
CCCc1nc(C)c2c(O)nc(-c3cc(S(=O)(=O)N4CCN(CC)CC4)ccc3OCC)nn12 [UM0141782:01, Vardenafil HCl Trihydrate] | 3.783
COc1cc(N2CCOCC2)ccc1NC(=O)c1csc(-c2cccnc2)n1 [UM0141564:01, IRAK inhibitor 6] | 6.368
CC(C)(C)c1ccc(S(=O)(=O)NCc2ccc(C(=O)Nc3cccnc3)cc2)cc1 [UM0142793:01, STF 31] | 3.916
Nc1nc(CC(=O)Nc2ccc(CCNC[C@H](O)c3ccccc3)cc2)cs1 [UM0142057:01, Mirabegron (YM178)] | 3.158
O=C(Nc1cccnc1)c1cc(-c2ccnc(F)c2)ccc1OCc1ccccc1 [UM0142641:01, GSK2578215A] | 10.96
C[C@H](Cc1ccc(O)c(O)c1)[C@@H](C)Cc1ccc(O)c(O)c1 [UM0141592:01, Nordihydroguaiaretic acid] | 80.65
CO[C@@H]1[C@H](OC(=O)/C=C/C=C/C=C/C=C/C(=O)O)CC[C@]2(CO2)[C@H]1[C@@]1(C)O[C@@H]1CC=C(C)C [UM0141832:01, Fumagillin] | 0.06739

SMILES | Inh (PKA) [%]
O=C(CCCCCCC(=O)Nc1ccc(I)cc1)NO [UM0142835:01, 4-iodo-SAHA] | 5.197
N#Cc1ccc(C(c2ccc(C#N)cc2)n2cncn2)cc1 [UM0141390:01, Letrozole] | 1.331
C[N+]1(C)CCC(=C(c2ccccc2)c2ccccc2)CC1 [UM0118457:03, Diphemanil Methylsulfate] | -0.1303
O=C1CCc2ccc(OCCCCN3CCN(c4cccc(Cl)c4Cl)CC3)cc2N1 [UM0133361:02, Aripiprazole] | 19.63
C=C1C(=O)[C@]23[C@H](O)[C@H]1CC[C@H]2[C@@]12CO[C@]3(O)[C@@H](O)[C@@H]1C(C)(C)CC[C@@H]2O [oridonin] | 14.12
Cc1cnc(NC(=O)Nc2cc(Br)c(C)cc2OC[C@@H]2CNCCO2)cn1 [UM0142106:01, LY2603618] | 6.637
CC(C)C[C@H](NC(=O)[C@@H](NC(=O)c1cccc(-c2ccccc2)n1)[C@@H](C)O)B(O)O [UM0141664:01, CEP-18770] | 2.205
C[C@H]1O[C@H](O[C@H]2[C@H](O)[C@@H](O)[C@@H](O[C@H]3[C@H](O)[C@@H](O)C(O)O[C@@H]3CO)O[C@@H]2CO)[C@H](O)[C@@H](O)[C@@H]1N[C@H]1C=C(CO)[C@@H](O)[C@H](O)[C@H]1O (some centres unmarked) [UM0141458:01, Acarbose] | 2.661
CCC[S+]([O-])c1ccc2[nH]c(NC(=O)OC)nc2c1 (centres unmarked) [UM0142387:01, Albendazole Oxide] | 2.774
CCN1CCCC1CNC(=O)c1cc(S(=O)(=O)CC)c(N)cc1OC (centres unmarked) [UM0142272:01, Amisulpride] | 0.7269
O=S(=O)(N=Cc1c(O)ccc2ccccc12)c1cccs1 [UM0142640:01, STF 083010] | 10.66
COC(=O)C1=C(C#N)NC(C)=C(C(=O)OC(C)C)C1c1cccc([N+](=O)[O-])c1 (centres unmarked) [UM0142051:01, Nilvadipine] | 88.81
C[C@@H]1O[C@@H](O[C@H]2C[C@@H](O)[C@]3(CO)[C@H]4[C@H](O)C[C@]5(C)[C@@H](C6=CC(=O)OC6)CC[C@]5(O)[C@@H]4CC[C@]3(O)C2)[C@H](O)[C@H](O)[C@H]1O [UM0134215:02, Ouabain] | 0.8032
O=c1c(-c2ccc(O)cc2)coc2cc(O)cc(O)c12 [UM0133748:02, Genistein] | 59.26
CN1CC(=O)N2[C@H](c3ccc4c(c3)OCO4)c3[nH]c4ccccc4c3C[C@@H]2C1=O [UM0133276:02, Tadalafil] | 5.88
CN1CCN(CCOc2cc(OC3CCOCC3)c3c(Nc4c(Cl)ccc5c4OCO5)ncnc3c2)CC1 [UM0141443:01, Saracatinib (AZD0530)] | 2.374
Cc1nc2n(c(=O)c1CCN1CCC(c3noc4cc(F)ccc34)CC1)CCCC2 [UM0134126:02, Risperidone] | 4.965
CNC(=O)c1ccccc1Oc1nc(Nc2cc(OC)c(OC)c(OC)c2)ncc1Br [UM0142126:01, SBI-0206965] | 34.96
